From ChEMBL document CHEMBL6071179, “New LsrK Ligands as AI-2 Quorum Sensing Interfering Compounds against Biofilm Formation” (J Med Chem, 2024)
Active and inactive are the calls of the source. The rule behind the calls is not given here.

Experiments:
[1] = system: Staphylococcus aureus; test: Antibiofilm activity against Staphylococcus aureus BHICC at 500 ug/ml incubated for 24 hrs by crystal violet staining based microplate reader assay; assay type: functional; details: dose 500 µg/ml
[2] = biological target: T1, Autoinducer-2 kinase (Bacteria) (UniProt P77432); test: Binding affinity to LSRK (unknown origin) assessed as change in melting temperature at 500 ug/ml by SYPRO orange staining based differential scanning fluorimetry assay; details: dose 500.0 µg/ml
T1 sequence (whole entry): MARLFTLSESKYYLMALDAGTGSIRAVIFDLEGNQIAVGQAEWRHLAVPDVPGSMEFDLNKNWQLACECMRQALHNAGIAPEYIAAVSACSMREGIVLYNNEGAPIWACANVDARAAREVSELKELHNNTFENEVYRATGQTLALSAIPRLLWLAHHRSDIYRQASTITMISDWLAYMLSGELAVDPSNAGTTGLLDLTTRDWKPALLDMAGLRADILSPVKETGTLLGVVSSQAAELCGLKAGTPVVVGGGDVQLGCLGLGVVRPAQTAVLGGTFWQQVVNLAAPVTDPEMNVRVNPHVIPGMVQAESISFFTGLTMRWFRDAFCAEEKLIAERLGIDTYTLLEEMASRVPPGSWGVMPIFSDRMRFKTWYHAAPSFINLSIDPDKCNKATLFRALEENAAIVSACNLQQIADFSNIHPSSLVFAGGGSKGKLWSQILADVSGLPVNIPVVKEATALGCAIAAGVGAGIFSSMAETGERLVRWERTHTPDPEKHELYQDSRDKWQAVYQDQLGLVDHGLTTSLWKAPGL

[3] = system: Pseudomonas aeruginosa; test: Antibiofilm activity against Pseudomonas aeruginosa PAO1 at 500 ug/ml incubated for […] by crystal violet staining based microplate reader assay; assay type: functional; details: dose 500 µg/ml
[4] = biological target: T1, Autoinducer-2 kinase (Bacteria); test: Binding affinity to LsrK (unknown origin) assessed as reduction in fluorescence intensity by intrinsic tryptophan fluorescence spectroscopy
[5] = Inhibition of Vibrio harveyi BB886 AI-1 mediated Quorum sensing system assessed as reduction in bioluminescence incubated for 8 hrs
[6] = Inhibition of Vibrio harveyi BB170 AI-2 mediated Quorum sensing system assessed as reduction in bioluminescence incubated for 8 hrs
[7] = system: Pseudomonas aeruginosa; test: Inhibition of Pseudomonas aeruginosa bacterial growth at 500 ug/ml incubated for 20 hrs by microplate reader assay; assay type: functional, organism-based; details: dose 500.0 µg/ml
[8] = biological target: T1, Autoinducer-2 kinase (Bacteria); test: Binding affinity to LsrK (unknown origin) by STD NMR assay
[9] = biological target: T1, Autoinducer-2 kinase (Bacteria); test: Binding affinity to LSRK (unknown origin) assessed as change in melting temperature at 500 ug/ml in presence of ATP by SYPRO orange staining based differential scanning fluorimetry assay; details: dose 500.0 µg/ml
[10] = biological target: T1, Autoinducer-2 kinase (Bacteria); test: Binding affinity to LsrK (unknown origin) assessed as decrease in ellipticity at 2 to 20 uM by Far-UV CD spectra; details: dose 2-20 µM
[11] = system: Vibrio harveyi; test: Inhibition of Vibrio harveyi BB886 bacterial growth at 4 to 500 ug/ml incubated for 24 hrs by resazurin dye based microplate reader assay; assay type: functional, organism-based; details: dose 4-500 µg/ml
[12] = system: Vibrio harveyi; test: Inhibition of Vibrio harveyi BB120 bacterial growth at 4 to 500 ug/ml incubated for 24 hrs by resazurin dye based microplate reader assay; assay type: functional, organism-based; details: dose 4-500 µg/ml
[13] = Inhibition of Vibrio harveyi BB120 AI-2 mediated Quorum sensing system assessed as reduction in bioluminescence incubated for 8 hrs
[14] = system: Staphylococcus aureus; test: Inhibition of Staphylococcus aureus bacterial growth at 500 ug/ml incubated for 20 hrs by microplate reader assay; assay type: functional, organism-based; details: dose 500.0 µg/ml
[15] = biological target: T1, Autoinducer-2 kinase (Bacteria); test: Binding affinity to LsrK (unknown origin) assessed as reduction in fluorescence intensity at 1 uM by intrinsic tryptophan fluorescence spectroscopy

COC(=O)[C@H](C)NC(=O)[C@H](Cc1ccccc1)NC(=O)[C@@H]1COC(C)(C)O1
MBIC50 [1]: 82.2 µg/mL | ΔTm [2]: > 1 °C | MBIC50 [3]: 25.4 µg/mL | Activity [4]: Dose-Dependent Effect

O=C(N[C@@H](Cc1ccccc1)C(=O)O)C1COC2(CCCCC2)OC1
MBIC50 [1]: 20.6 µg/mL | MBIC50 [3]: 50 µg/mL

COC(=O)[C@H](C)NC(=O)[C@H](Cc1ccccc1)NC(=O)C1OCC2(CCCCC2)CO1
MBIC50 [1]: 55.9 µg/mL | MBIC50 [3]: 483 µg/mL

Cn1nc(-c2ccccc2)cc1C1COC2(CCCCC2)O1 (stereo not drawn)
MBIC50 [1]: 55.2 µg/mL

O=C(NCCc1ccccc1)C1COC2(CCCCC2)OC1
MBIC50 [1]: 16.2 µg/mL | ΔTm [2]: > 1 °C | inhibition [5]: inactive | inhibition [6]: Active | inhibition [7]: inactive | Activity [8]: Active | ΔTm [9]: > 2 °C | Activity [10]: Dose-Dependent Effect | MBIC50 [3]: 6.2 µg/mL | inhibition [11]: inactive | inhibition [12]: inactive | inhibition [13]: Active | inhibition [14]: inactive | Activity [4]: Dose-Dependent Effect

c1ccc(-c2cc(C3COC4(CCCCC4)O3)[nH]n2)cc1 (stereo not drawn)
MBIC50 [1]: 45.1 µg/mL | inhibition [7]: inactive | MBIC50 [3]: 22.5 µg/mL | inhibition [14]: inactive

COC(=O)[C@H](Cc1ccccc1)NC(=O)C(O)CO (stereo partly drawn)
MBIC50 [1]: 173 µg/mL

CC1(C)OCC(C(=O)NCc2ccccc2)O1 (stereo not drawn)
MBIC50 [3]: 36.6 µg/mL

O=C(NCc1ccccc1)C(O)CO (stereo not drawn)
MBIC50 [1]: 128.2 µg/mL

O=C(N[C@@H](Cc1ccccc1)C(=O)O)C1COC2(CCCCC2)O1 (stereo partly drawn)
MBIC50 [1]: 61.5 µg/mL | inhibition [7]: inactive | MBIC50 [3]: 46.2 µg/mL | inhibition [14]: inactive

COC(=O)[C@H](C)NC(=O)[C@H](Cc1ccccc1)NC(=O)C1COC(C)(C)O1 (stereo partly drawn)
MBIC50 [1]: 152.3 µg/mL | inhibition [5]: inactive | inhibition [6]: Active | inhibition [7]: inactive | ΔTm [9]: > 2 °C | MBIC50 [3]: 29.1 µg/mL | inhibition [11]: inactive | inhibition [12]: inactive | inhibition [13]: Active | inhibition [14]: inactive

O=C(NCc1ccccc1)C1COC2(CCCCC2)OC1
MBIC50 [3]: 40.8 µg/mL

CCCCCCCN(CCN(CC(=O)O)CC(=O)O)CC(=O)O
IC50 [6]: 400 nM

CC(=O)N[C@@H](CS)C(=O)O [ACETYLCYSTEINE]
MBIC50 [3]: 14 µg/mL

COC(=O)[C@H](C)NC(=O)[C@H](Cc1ccccc1)NC(=O)[C@H]1COC(C)(C)O1
MBIC50 [1]: 169.7 µg/mL | MBIC50 [3]: 31.7 µg/mL | Activity [4]: Dose-Dependent Effect

CC1(C)OC[C@H](C(=O)N[C@@H](Cc2ccccc2)C(=O)O)O1
MBIC50 [1]: 25.4 µg/mL | ΔTm [2]: > 1 °C | Flu intensity [15]: 6% | Activity [10]: Dose-Dependent Effect | MBIC50 [3]: 30.4 µg/mL | Activity [4]: Dose-Dependent Effect

O=C(NCCc1ccccc1)C1COC2(CCCCC2)O1 (stereo not drawn)
MBIC50 [1]: 92.3 µg/mL | MBIC50 [3]: 38.3 µg/mL

COC(=O)[C@H](Cc1ccccc1)NC(=O)C1COC2(CCCCC2)OC1
MBIC50 [1]: 85.8 µg/mL

Cn1nc(C2COC3(CCCCC3)O2)cc1-c1ccccc1 (stereo not drawn)
MBIC50 [1]: 121.4 µg/mL | inhibition [7]: inactive | MBIC50 [3]: 373 µg/mL | inhibition [14]: inactive

O=C(NCc1ccccc1)C1COC2(CCCCC2)O1 (stereo not drawn)
MBIC50 [1]: 1913 µg/mL

CCOC(=O)N1CCC(=C2c3ccc(Cl)cc3CCc3cccnc32)CC1 [LORATADINE]
MBIC50 [1]: 23 µg/mL

CC1(C)OC[C@@H](C(=O)N[C@@H](Cc2ccccc2)C(=O)O)O1
MBIC50 [1]: 26.3 µg/mL | ΔTm [2]: > 1 °C | Flu intensity [15]: 12% | Activity [10]: Dose-Dependent Effect | MBIC50 [3]: 34.4 µg/mL | Activity [4]: Dose-Dependent Effect

CC1(C)OCC(C(=O)N[C@@H](Cc2ccccc2)C(=O)O)O1 (stereo partly drawn)
MBIC50 [1]: 34.6 µg/mL | inhibition [5]: inactive | inhibition [6]: Active | inhibition [7]: inactive | ΔTm [9]: > 2 °C | MBIC50 [3]: 27.7 µg/mL | inhibition [11]: inactive | inhibition [12]: inactive | inhibition [13]: Active | inhibition [14]: inactive

COC(=O)[C@H](Cc1ccccc1)NC(=O)C1COC2(CCCCC2)O1 (stereo partly drawn)
MBIC50 [1]: 71.1 µg/mL | MBIC50 [3]: 60.5 µg/mL
